Data on two molecules can be found in patent publication US20080269167A1, “Preparation Comprising Iron(III) Complex Compounds And Redox-Active Substance(s)” (VIFOR (INTERNATIONAL) AG, priority 2005, published 2008).

The conditions of series [1]: pH 7; relative to normal hydrogen electrode; cited from earlier work.
A short description of series [2]: Reaction of iron(III)-polymaltose complex with ascorbic acid in buffered solution, UV-VIS, exclusion of oxygen. It counts as physicochemical. From the text:
The following measurements were obtained when iron(III)-polymaltose complex with ascorbic acid (ascorbic acid) was investigated at pH 3.0, 5.5 and 8.0:
The buffered solutions (buffers as described above, see Geisser, P., Arneim. -Forsch./Drug Res. 1990, 40 (II), 7, 754-760) were mixed in a molar ratio of Fe(III):ascorbic acid of 1:1, the concentration of Fe(III) and ascorbic acid in the mixture being 5×10^−5 mol/l in each case, and investigated using a conventional UV-VIS spectrophotometer. The operation was carried out with the strict exclusion of oxygen.

Setting [3] is: pH 3.0, reaction time 2 h, Fe(III):ascorbic acid 1:1, 5x10^-5 mol/l.
The mark [4] stands for this setting: pH 3.0, reaction time 4 h, Fe(III):ascorbic acid 1:1.
The mark [5] stands for this setting: pH 5.5, reaction time 2 h, Fe(III):ascorbic acid 1:1.
Where [6] appears, read: pH 8.0, reaction time 2 h, Fe(III):ascorbic acid 1:1.
[7] abbreviates: pH 8.0, reaction time 4 h, Fe(III):ascorbic acid 1:1.

iron(III)-polymaltose complex: in series [1], the redox potential is given as −332 mV. In series [2] (pH 3, 5.5 and 8, buffered solution, exclusion of oxygen), the “reaction with ascorbic acid to give dehydroascorbic acid” value is reported as “does not react”. The “Formation of Fe2+ ions” value in series [2] (setting [3]) amounted to 2%; in series [2] (setting [4]) it was 7%; in series [2] (setting [5]), 0%; in series [2] (setting [6]), 5%; in series [2] (setting [7]), 5%. The “Formation of dehydroascorbic acid” value turned out to be 2% in series [2] (setting [3]); 7% in series [2] (setting [4]); 0% in series [2] (setting [5]); 9% in series [2] (setting [6]); 13% in series [2] (setting [7]). Besides, in series [2] (within a period of 4 hours, pH values of from 3 to 8), the “reaction with ascorbic acid to dehydroascorbic acid and Fe(II)” value was “reacts only slowly”.

As for `O=C1O[C@H]([C@@H](O)CO)C(O)=C1O` [ascorbic acid, reference compound], the redox potential in series [1] was −66 mV.
